Reference: paper PMC4970510 (Journal of Medicinal Chemistry, 2016)
Entries after “also recorded” stand apart in the source; their conditions may differ. Values belong to the compound of their own block, whether it stands above or below them.

Legend:
hA3AR [1] = target: T1, hA3AR (Homo sapiens, UniProt P0DMS8); experiment: Radioligand binding at hA3AR; conditions: ratio of hA3AR Ki
T1 sequence (P0DMS8 1-318): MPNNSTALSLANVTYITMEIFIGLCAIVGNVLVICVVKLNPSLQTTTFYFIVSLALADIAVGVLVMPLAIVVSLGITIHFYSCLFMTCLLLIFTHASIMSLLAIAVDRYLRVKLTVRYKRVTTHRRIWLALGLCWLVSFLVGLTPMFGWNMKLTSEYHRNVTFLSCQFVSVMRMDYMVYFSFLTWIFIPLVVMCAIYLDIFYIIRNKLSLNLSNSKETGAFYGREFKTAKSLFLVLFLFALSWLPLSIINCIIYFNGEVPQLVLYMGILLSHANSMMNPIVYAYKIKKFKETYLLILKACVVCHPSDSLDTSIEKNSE

mA3AR = target: T2, mA3AR (Mus musculus, UniProt Q61618); format: cell-based; conditions: compared to reference full agonist 55
T2 sequence (Q61618 1-319): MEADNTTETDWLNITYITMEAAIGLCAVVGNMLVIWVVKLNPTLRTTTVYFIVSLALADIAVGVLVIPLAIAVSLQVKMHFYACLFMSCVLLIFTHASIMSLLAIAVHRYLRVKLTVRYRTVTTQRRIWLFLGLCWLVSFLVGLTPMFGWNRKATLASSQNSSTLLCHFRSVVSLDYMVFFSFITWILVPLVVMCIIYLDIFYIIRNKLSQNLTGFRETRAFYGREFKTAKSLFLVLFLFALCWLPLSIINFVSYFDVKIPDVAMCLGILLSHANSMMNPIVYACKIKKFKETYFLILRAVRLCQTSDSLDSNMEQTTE

[2] = system: mouse chronic constriction injury (CCI) model; experiment: Mouse chronic constriction injury; format: in vivo; conditions: po, 3 μmol/kg
human A2BAR = conditions: at 1 mM, human fibroblasts; cited from earlier work
[3] = system: canine coronary artery A2AAR; conditions: activation of canine coronary artery A2AAR; cited from earlier work
adenosine deaminase = conditions: cited from earlier work
[4] = target: human dopamine transporter (hDAT) (Homo sapiens, UniProt Q01959); experiment: PDSP radioligand binding at human dopamine transporter; conditions: at 10 μM, [3H] tropane radioligand
human dopamine transporter (hDAT), sequence (Q01959 whole entry): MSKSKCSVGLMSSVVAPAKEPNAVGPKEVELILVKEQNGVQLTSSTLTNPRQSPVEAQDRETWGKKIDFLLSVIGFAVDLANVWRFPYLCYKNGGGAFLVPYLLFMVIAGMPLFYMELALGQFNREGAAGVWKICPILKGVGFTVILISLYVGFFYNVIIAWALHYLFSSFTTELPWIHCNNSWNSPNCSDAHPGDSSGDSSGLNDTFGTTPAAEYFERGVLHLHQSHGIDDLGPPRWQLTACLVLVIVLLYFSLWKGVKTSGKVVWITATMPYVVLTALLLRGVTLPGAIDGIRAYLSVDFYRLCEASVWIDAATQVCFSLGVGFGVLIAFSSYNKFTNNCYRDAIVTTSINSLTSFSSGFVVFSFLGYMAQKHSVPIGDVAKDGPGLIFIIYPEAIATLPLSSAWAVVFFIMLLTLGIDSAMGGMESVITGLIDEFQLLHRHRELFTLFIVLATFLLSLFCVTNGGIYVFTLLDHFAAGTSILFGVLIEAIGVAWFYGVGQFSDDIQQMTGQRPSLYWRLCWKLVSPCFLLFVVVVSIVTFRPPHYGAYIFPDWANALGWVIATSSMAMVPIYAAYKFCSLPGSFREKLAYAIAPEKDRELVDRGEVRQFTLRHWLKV

[5] = PDSP broad off-target screen of receptors and channels; format: binding; conditions: PDSP screen of diverse receptors
[6] = system: mouse chronic constriction injury (CCI) model; conditions: same dose (3 μmol/kg po); cited from earlier work
hA1AR = target: T3, hA1AR (Homo sapiens, UniProt P30542); experiment: Radioligand binding at hA1AR
T3 sequence (P30542 1-326): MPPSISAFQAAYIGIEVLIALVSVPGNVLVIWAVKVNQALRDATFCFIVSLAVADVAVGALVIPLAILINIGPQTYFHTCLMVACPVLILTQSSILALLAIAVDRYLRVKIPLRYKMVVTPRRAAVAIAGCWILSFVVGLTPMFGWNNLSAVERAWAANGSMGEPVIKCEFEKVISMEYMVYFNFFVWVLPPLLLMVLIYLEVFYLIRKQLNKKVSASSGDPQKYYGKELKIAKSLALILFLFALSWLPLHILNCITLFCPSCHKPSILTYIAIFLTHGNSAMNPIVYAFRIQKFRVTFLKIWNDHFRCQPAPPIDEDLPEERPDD

hA2AAR = hA2AAR (Homo sapiens, UniProt P29274); experiment: Radioligand binding at hA2AAR
hA2AAR, sequence (P29274 whole entry): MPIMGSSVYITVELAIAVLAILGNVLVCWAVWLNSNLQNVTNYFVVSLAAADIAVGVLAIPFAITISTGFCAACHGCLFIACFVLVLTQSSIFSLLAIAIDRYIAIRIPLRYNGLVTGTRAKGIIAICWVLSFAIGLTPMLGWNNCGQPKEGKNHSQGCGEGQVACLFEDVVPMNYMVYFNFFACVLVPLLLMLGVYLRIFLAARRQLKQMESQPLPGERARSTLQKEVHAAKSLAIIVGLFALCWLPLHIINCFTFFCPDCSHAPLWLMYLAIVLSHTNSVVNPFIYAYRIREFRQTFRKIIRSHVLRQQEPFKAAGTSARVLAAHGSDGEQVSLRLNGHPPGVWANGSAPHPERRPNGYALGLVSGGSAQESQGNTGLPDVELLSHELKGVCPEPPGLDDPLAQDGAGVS

hA3AR [7] = target: T1, hA3AR; format: cell-based; conditions: relative to 1 at 10 μM, CHO cells

SMILES: CNC(=O)[C@@]12C[C@@H]1[C@@H](n1cnc3c(/C=C(\O)c4ccccc4)nc(C#Cc4ccccc4)nc31)[C@H](O)[C@@H]2O [Compound 12, (1S,2R,3S,4R,5S)-2,3-Dihydroxy-4-(6-((Z)-2-hydroxy-2-phenylvinyl)-2-(phenylethynyl)-9H-purin-9-yl)-N-methylbicyclo[3.1.0]hexane-1-carboxamide]
Fold more potent at hA3AR than C2–Cl derivative 11b (hA3AR [1]): 15 fold
mA3AR agonist efficacy (mA3AR): full agonists
Reversal of mechanoallodynia (neuropathic pain) ([2]; day 7): efficacious in reducing pain
Reversal of the pain ([2]; day 7): < 100%

SMILES: OC[C@H]1O[C@@H](n2cnc3cncnc32)[C@H](O)[C@@H]1O [Compound 56, purine-9-riboside]
Efficacy relative to 10 μM adenosine (human A2BAR): 15%
Fold less potent than adenosine [3]: 40 fold
Adenosine deaminase inhibition (adenosine deaminase): weak inhibitor

SMILES: CNC(=O)[C@@]12C[C@@H]1[C@@H](n1cnc3c(NCc4cccc(Cl)c4)nc(C#Cc4ccc(F)c(F)c4)nc31)[C@H](O)[C@@H]2O [Compound 8]
Protection against mechanoallodynia at 1 h [6]: 100%

SMILES: Cc1ncnc2c1ncn2[C@@H]1O[C@H](CO)[C@@H](O)[C@H]1O [6-methylpurine-9-riboside]
Efficacy relative to 10 μM adenosine (human A2BAR): 6%

Second part, led by results:

Enhancement of hDAT radioligand binding [4]: roughly 200%
Off-target interactions [5]: no significant binding inhibition
SMILES: CNC(=O)[C@@]12C[C@@H]1[C@@H](n1cnc3c(C)nc(C#Cc4ccccc4)nc31)[C@H](O)[C@@H]2O [Compound 15]
Reversal of mechanoallodynia (neuropathic pain) ([2]; day 7): efficacious in reducing pain
Reversal of the pain ([2]; day 7): < 100%

Ki (hA1AR): > 10 µM
Ki (hA2AAR): > 10 µM
hA3AR agonist efficacy (hA3AR [7]): potent, full agonists
SMILES: CNC(=O)[C@@]12C[C@@H]1[C@@H](n1cnc3c(C)nc(C#Cc4ccc(Cl)s4)nc31)[C@H](O)[C@@H]2O [Compound 19, (1S,2R,3S,4R,5S)-4-(2-((5-Chlorothiophen-2-yl)ethynyl)-6-methyl-9H-purin-9-yl)-2,3-dihydroxy-N-methylbicyclo[3.1.0]hexane-1-carboxamide]

Ki (hA1AR): > 10 µM
Ki (hA2AAR): > 10 µM
hA3AR agonist efficacy (hA3AR [7]): potent, full agonists
Off-target interactions [5]: no off-target interactions
SMILES: CNC(=O)[C@@]12C[C@@H]1[C@@H](n1cnc3cnc(C#Cc4ccc(Cl)s4)nc31)[C@H](O)[C@@H]2O [Compound 21, (1S,2R,3S,4R,5S)-4-(2-((5-Chlorothiophen-2-yl)ethynyl)-9H-purin-9-yl)-2,3-dihydroxy-N-methylbicyclo[3.1.0]hexane-1-carboxamide]
Duration of action ([2]; day 7): at least 5 h
Reversal of mechanoallodynia (neuropathic pain) ([2]; day 7): clearly more efficacious and longer lasting; also recorded: completely reversing mechanoallodynia
Reversal of mechanoallodynia (neuropathic pain) ([2]; day 7, listed as MRS7220): completely reversed
